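Cells were grown in 96-well plates and exposed to each compound for 48 hours at five concentrations; endpoints were interpolated linearly between bracketing concentrations, or set to the highest concentration if not reached. Abbreviation: GI50, concentration required for 50% inhibition of growth. Definition used: TGI = concentration required for complete inhibition of growth.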
Key:
Experiment in all cases: growth of human tumour cells (NCI), 48 h
[1] = tested on: MDA-MB-435
[2] = tested on: COLO 205 colon
[3] = tested on: DU-145 prostate
[4] = tested on: RXF 393 renal
[5] = tested on: RPMI-8226 leukemia
[6] = tested on: NCI/ADR-RES ovarian
[7] = tested on: HCT-116 colon
[8] = tested on: ACHN renal
[9] = tested on: NCI-H522 lung
[10] = tested on: SK-MEL-2 melanoma
[11] = tested on: SK-MEL-28 melanoma
[12] = tested on: OVCAR-8 ovarian
[13] = tested on: UACC-257 melanoma
[14] = tested on: PC-3 prostate
[15] = tested on: T-47D breast
[16] = tested on: SK-OV-3 ovarian
[17] = tested on: 786-0 renal
[18] = tested on: HOP-62 NSCLC
[19] = tested on: OVCAR-4 ovarian
[20] = tested on: OVCAR-3 ovarian
[21] = tested on: BT-549 breast
[22] = tested on: SN12C renal
[23] = tested on: TK-10 renal
[24] = tested on: CAKI-1 renal
[25] = tested on: HCT-15 colon
[26] = tested on: MALME-3M melanoma
[27] = tested on: LOX IMVI melanoma
[28] = tested on: A549 NSCLC
[29] = tested on: HCC-2998 colon
[30] = tested on: HL-60(TB) leukemia
[31] = tested on: MCF7 breast
[32] = tested on: NCI-H23 lung
[33] = tested on: SW-620 colon
[34] = tested on: MDA-MB-231 breast
[35] = tested on: HT29 colon
[36] = tested on: NCI-H226 lung
[37] = tested on: EKVX NSCLC
[38] = tested on: HOP-92 NSCLC
[39] = tested on: KM12 colon
[40] = tested on: SK-MEL-5 melanoma
[41] = tested on: MOLT-4 leukemia
[42] = tested on: HS 578T breast
[43] = tested on: SNB-19 CNS
[44] = tested on: NCI-H460 lung
[45] = tested on: SF-268 CNS
[46] = tested on: M14 melanoma
[47] = tested on: OVCAR-5 ovarian
[48] = tested on: CCRF-CEM leukemia
[49] = tested on: U251 CNS
[50] = tested on: SNB-75 CNS
[51] = tested on: SF-539 CNS
[52] = tested on: SF-295 CNS
[53] = tested on: IGROV1 ovarian
[54] = tested on: K-562 leukemia
[55] = tested on: MDA-MB-468 breast
[56] = tested on: UACC-62 melanoma
[57] = tested on: UO-31 renal
[58] = tested on: A498 renal

In the case of `C=C1CCC2C3(C)COC(c4ccco4)OC3CCC2(C)C1CC(Sc1ccccc1)C1=CCOC1=O` (stereo unspecified), the GI50 [1] is reported as 8.94 µM, the TGI [1] is reported as > 100 µM and the GI50 [2] is reported as 24.4 µM. The TGI [2] was > 100 µM, the GI50 [3] was 9.01 µM and the TGI [3] was 73.6 µM. It also gave a GI50 [4] of 8.05 µM, a TGI [4] of 49.1 µM and a GI50 [5] of 2.36 µM. For the same molecule, the TGI [5] was 8.23 µM, the GI50 [6] was 2.6 µM and the TGI [6] was 6.95 µM. The GI50 [7] was 4.39 µM, the TGI [7] was 17.9 µM and the GI50 [8] was 14.1 µM. For the same molecule, the TGI [8] was > 100 µM, the GI50 [9] was 7.51 µM and the TGI [9] was 20.4 µM. It also gave a GI50 [10] of 7.3 µM, a TGI [10] of 22 µM and a GI50 [11] of 28.5 µM. The TGI [11] was > 100 µM, the GI50 [12] was 3.05 µM and the TGI [12] was 14.3 µM. For the same molecule, the GI50 [13] was 21.9 µM, the TGI [13] was > 100 µM and the GI50 [14] was 6.71 µM. For the same molecule, the TGI [14] was > 100 µM, the GI50 [15] was 14.4 µM and the TGI [15] was > 100 µM. The GI50 [16] was 80.1 µM, the TGI [16] was > 100 µM and the GI50 [17] was 14.3 µM. The TGI [17] was 34.1 µM, the GI50 [18] was 23.5 µM and the TGI [18] was > 100 µM. The GI50 [19] was 14.7 µM, the TGI [19] was > 100 µM and the GI50 [20] was 3.78 µM. For the same molecule, the TGI [20] was 12.5 µM, the GI50 [21] was 3.97 µM and the TGI [21] was 16.9 µM. For the same molecule, the GI50 [22] was 9.46 µM, the TGI [22] was > 100 µM and the GI50 [23] was 97.7 µM. For the same molecule, the TGI [23] was > 100 µM, the GI50 [24] was 18.4 µM and the TGI [24] was > 100 µM. The GI50 [25] was 6.66 µM, the TGI [25] was 52.9 µM and the GI50 [26] was 35.6 µM. The TGI [26] was > 100 µM, the GI50 [27] was 1.81 µM and the TGI [27] was 4 µM. For the same molecule, the GI50 [28] was 18.7 µM, the TGI [28] was > 100 µM and the GI50 [29] was 21.1 µM. For the same molecule, the TGI [29] was > 100 µM, the GI50 [30] was 2.82 µM and the TGI [30] was 36.4 µM. The GI50 [31] was 3.75 µM, the TGI [31] was 41 µM and the GI50 [32] was 21.5 µM. For the same molecule, the TGI [32] was 88.9 µM, the GI50 [33] was 3.43 µM and the TGI [33] was 15 µM. For the same molecule, the GI50 [34] was 14.3 µM, the TGI [34] was 53.2 µM and the GI50 [35] was 4.26 µM. The TGI [35] was 26.1 µM, the GI50 [36] was 6.22 µM and the TGI [36] was 62.6 µM. The GI50 [37] was 11 µM, the TGI [37] was > 100 µM and the GI50 [38] was 16.5 µM. For the same molecule, the TGI [38] was > 100 µM, the GI50 [39] was 12.1 µM and the TGI [39] was > 100 µM. It also gave a GI50 [40] of 10.8 µM, a TGI [40] of 22.9 µM and a GI50 [41] of 4.41 µM. The TGI [41] was > 100 µM, the GI50 [42] was 35.7 µM and the TGI [42] was > 100 µM. For the same molecule, the GI50 [43] was 42.3 µM, the TGI [43] was > 100 µM and the GI50 [44] was 21.7 µM. The TGI [44] was > 100 µM, the GI50 [45] was 59.5 µM and the TGI [45] was > 100 µM. It also gave a GI50 [46] of 15.7 µM, a TGI [46] of 69.2 µM and a GI50 [47] of 21.7 µM. For the same molecule, the TGI [47] was 91 µM, the GI50 [48] was 2.12 µM and the TGI [48] was > 100 µM. It also gave a GI50 [49] of 5.88 µM, a TGI [49] of 20.3 µM and a GI50 [50] of 8.98 µM. For the same molecule, the TGI [50] was > 100 µM, the GI50 [51] was 4.12 µM and the TGI [51] was 15.6 µM. For the same molecule, the GI50 [52] was 25.7 µM, the TGI [52] was > 100 µM and the GI50 [53] was 17.8 µM. The TGI [53] was > 100 µM, the GI50 [54] was 3.62 µM and the TGI [54] was > 100 µM. The GI50 [55] was 3.8 µM, the TGI [55] was 16.7 µM and the GI50 [56] was 12.4 µM. The TGI [56] was 31.8 µM, the GI50 [57] was 13.4 µM and the TGI [57] was > 100 µM. The GI50 [58] was > 100 µM and the TGI [58] was > 100 µM.
